Data published in patent US9060515B2, “Heterocyclic urea compounds” (BIOTA EUROPE LTD, priority 2011, dated 2015).
Converted amounts (≈) assume the structure as drawn.

Experiments:
[1] = test system: S. pyogenes (ATCC 51339); test: Antibacterial susceptibility testing (MIC, broth microdilution or agar dilution), S. pyogenes; type: cell-based; conditions: Streptococcus pyogenes, ATCC51339; read-out: S. pyogenes (ATCC 51339) minimal inhibitory concentration (MIC)
Method: (§1) Compounds of the invention were tested for antimicrobial activity by susceptibility testing in liquid or on solid media. MICs for compounds against each strain were determined by the broth microdilution or agar dilution method according to the guidelines of the Clinical Laboratories and Standards Institute, formerly the National Committee for Clinical Laboratory Standards (Clinical Laboratories and Standards Institute. Methods for Dilution Antimicrobial Susceptibility Tests for Bacteria That Grow Aerobically; Approved Standard—Seventh Edition. Document M7-A7. CLSI, Wayne, Pa., 2006; Clinical Laboratories and Standards Institute. The Gram positive bacterial strains tested include S. aureus (Staphylococcus aureus (Isolate ID ATCC 29213)), E. faecalis (Enterococcus faecalis (Isolate ID ATCC 29212)) and S. pyogenes (Streptococcus pyogenes (Isolate ID ATCC 51339)). The Gram negative bacterial strains tested include H. influenzae (Haemophilus influenzae (Isolate ID ATCC 49247)).

[2] = test system: S. aureus (ATCC 29213); test: Antibacterial susceptibility testing (MIC, broth microdilution or agar dilution), S. aureus; type: cell-based; conditions: Staphylococcus aureus, ATCC29213; read-out: S. aureus (ATCC 29213) minimal inhibitory concentration (MIC)
Method: as §1

Row | MIC [1] [µg/mL] | MIC [2] [µg/mL] | SMILES
1 | 4 (≈ 10.2 µM) | ≤ 1 | CCNC(=O)Nc1cc(Nc2ccccc2)c(C(=O)Nc2ccc(F)cc2)cn1 [Compound 55, 6-(3-ethylureido)-N-(4-fluorophenyl)-4-(phenylamino)nicotinamide]
2 | 2 (≈ 4.87 µM) | ≤ 1 | CCNC(=O)Nc1cc(Nc2cccc(Cl)c2)c(C(=O)Nc2cccnc2)cn1 [Compound 107, 4-(3-chlorophenylamino)-6-(3-ethylureido)-N-(pyridin-3-yl)nicotinamide]
3 | 32 (≈ 73.7 µM) | 2 (≈ 4.6 µM) | CCNC(=O)Nc1cc(Nc2cccc(C(=O)OC)c2)c(C(=O)Nc2cccnc2)cn1 [Compound 97, methyl 3-(2-(3-ethylureido)-5-(pyridin-3-ylcarbamoyl)pyridin-4-ylamino)benzoate]
4 | ≤ 1 | ≤ 1 | CCNC(=O)Nc1cc(Nc2ccc(Cl)cc2)c(C(=O)Nc2cccnc2)cn1 [Compound 106, 4-(4-chlorophenylamino)-6-(3-ethylureido)-N-(pyridin-3-yl)nicotinamide]
5 | 2 (≈ 4.91 µM) | ≤ 1 | CCNC(=O)Nc1cc(Nc2ccccc2)c(C(=O)Nc2cc(C)cc(F)c2)cn1 [Compound 93, 6-(3-ethylureido)-N-(3-fluoro-5-methylphenyl)-4-(phenylamino)nicotinamide]
6 | ≤ 1 | 8 (≈ 19.7 µM) | CCNC(=O)Nc1cc(Nc2ccc(CO)cc2)c(C(=O)Nc2cccnc2)cn1 [Compound 128, 6-(3-ethylureido)-4-(4-(hydroxymethyl)phenylamino)-N-(pyridin-3-yl)nicotinamide]
7 | 4 (≈ 8.65 µM) | 4 (≈ 8.65 µM) | CCNC(=O)Nc1cc(Nc2ccc(CC(=O)OCC)cc2)c(C(=O)Nc2cccnc2)cn1 [Compound 110, ethyl 2-(4-(2-(3-ethylureido)-5-(pyridin-3-ylcarbamoyl)pyridin-4-ylamino)phenyl)acetate]
8 | ≤ 1 | ≤ 1 | CCNC(=O)Nc1cc(Nc2ccc(C(=O)OC)cc2)c(C(=O)Nc2cccnc2)cn1 [Compound 96, methyl 4-(2-(3-ethylureido)-5-(pyridin-3-ylcarbamoyl)pyridin-4-ylamino)benzoate]
9 | ≤ 1 | 2 (≈ 4.98 µM) | CCNC(=O)Nc1cc(Nc2ccccc2)c(C(=O)Nc2ccc(C#N)nc2)cn1 [Compound 104, N-(6-cyanopyridin-3-yl)-6-(3-ethylureido)-4-(phenylamino)nicotinamide]
10 | ≤ 1 | ≤ 1 | CCNC(=O)Nc1cc(Nc2ccccc2)c(C(=O)Nc2ccncc2)cn1 [Compound 42, 6-(3-ethylureido)-4-(phenylamino)-N-(pyridin-4-yl)nicotinamide]
11 | 8 (≈ 20.2 µM) | 32 (≈ 80.9 µM) | CCNC(=O)Nc1cc(Nc2c(C)noc2C)c(C(=O)Nc2cccnc2)cn1 [Compound 115, 4-(3,5-dimethylisoxazol-4-ylamino)-6-(3-ethylureido)-N-(pyridin-3-yl)nicotinamide]
12 | ≤ 1 | 16 (≈ 39.4 µM) | CCNC(=O)Nc1cc(Nc2ccccc2)c(C(=O)Nc2ccc(=O)n(C)c2)cn1 [Compound 99, 6-(3-ethylureido)-N-(1-methyl-6-oxo-1,6-dihydropyridin-3-yl)-4-(phenylamino)nicotinamide]
13 | ≤ 1 | 2 (≈ 4.09 µM) | CCNC(=O)Nc1cc(Nc2ccccc2)c(C(=O)Nc2ccc(CC(C)(C)C(=O)OC)cc2)cn1 [Compound 129]
14 | 2 (≈ 5.08 µM) | ≤ 1 | CCNC(=O)Nc1cc(Nc2ccccc2)c(C(=O)Nc2cccc(F)c2)cn1 [Compound 56, 6-(3-ethylureido)-N-(3-fluorophenyl)-4-(phenylamino)nicotinamide]
15 | ≤ 1 | 2 (≈ 4.34 µM) | CCNC(=O)Nc1cc(Nc2ccccc2)c(C(=O)Nc2ccc(CCC(=O)NC)cc2)cn1 [Compound 120, 6-(3-ethylureido)-N-(4-(3-(methylamino)-3-oxopropyl)phenyl)-4-(phenylamino)nicotinamide]
16 | ≤ 1 | ≤ 1 | CCNC(=O)Nc1cc(Nc2ccccc2)c(C(=O)Nc2ccc(OC)nc2)cn1 [Compound 63, 6-(3-ethylureido)-N-(6-methoxypyridin-3-yl)-4-(phenylamino)nicotinamide]
17 | 32 (≈ 78.1 µM) | 4 (≈ 9.76 µM) | CCNC(=O)Nc1cc(Nc2ccccc2)c(C(=O)Nc2ccc(Cl)cc2)cn1 [Compound 34, N-(4-chlorophenyl)-6-(3-ethylureido)-4-(phenylamino)nicotinamide]
18 | 16 (≈ 39.5 µM) | 4 (≈ 9.87 µM) | CCNC(=O)Nc1cc(Nc2ccccc2)c(C(=O)Nc2ccc(OC)cc2)cn1 [Compound 33, 6-(3-ethylureido)-N-(4-methoxyphenyl)-4-(phenylamino)nicotinamide]
19 | ≤ 1 | ≤ 1 | CCNC(=O)Nc1cc(Nc2ccccc2)c(C(=O)Nc2cc(C(=O)OC)n(C)c2)cn1 [Compound 86, methyl 4-(6-(3-ethylureido)-4-(phenylamino)nicotinamido)-1-methyl-1H-pyrrole-2-carboxylate]

Row | MIC [1] [µg/mL] | MIC [2] [µg/mL] | SMILES
20 | 2 (≈ 5.27 µM) | 8 (≈ 21.1 µM) | CCNC(=O)Nc1cc(Nc2ccccc2)c(C(=O)Nc2ccn(C)n2)cn1 [Compound 59, 6-(3-ethylureido)-N-(1-methyl-1H-pyrazol-3-yl)-4-(phenylamino)nicotinamide]
21 | ≤ 1 | ≤ 1 | CCNC(=O)Nc1cc(Nc2ccccc2Cl)c(C(=O)Nc2cccnc2)cn1 [Compound 105, 4-(2-chlorophenylamino)-6-(3-ethylureido)-N-(pyridin-3-yl)nicotinamide]
22 | ≤ 1 | ≤ 1 | CCNC(=O)Nc1cc(Nc2ccccc2)c(C(=O)Nc2cncc(OC)c2)cn1 [Compound 79, 6-(3-ethylureido)-N-(5-methoxypyridin-3-yl)-4-(phenylamino)nicotinamide]
23 | ≤ 1 | 4 (≈ 10.6 µM) | CCNC(=O)Nc1cc(Nc2ccccc2)c(C(=O)Nc2cncnc2)cn1 [Compound 60, 6-(3-ethylureido)-4-(phenylamino)-N-(pyrimidin-5-yl)nicotinamide]
24 | ≤ 1 | 2 (≈ 4.65 µM) | CCNC(=O)Nc1cc(Nc2ccccc2)c(C(=O)Nc2cnc3c(c2)ncn3C)cn1 [Compound 88, 6-(3-ethylureido)-N-(3-methyl-3H-imidazo[4,5-b]pyridin-6-yl)-4-(phenylamino)nicotinamide]
25 | ≤ 1 | 2 (≈ 4.81 µM) | CCNC(=O)Nc1cc(Nc2ccccc2)c(C(=O)Nc2ccc3nccn3c2)cn1 [Compound 76, 6-(3-ethylureido)-N-(imidazo[1,2-a]pyridin-6-yl)-4-(phenylamino)nicotinamide]
26 | ≤ 1 | ≤ 1 | CCNC(=O)Nc1cc(Nc2ccccc2)c(C(=O)Nc2ccc(C)nc2)cn1 [Compound 81, 6-(3-ethylureido)-N-(6-methylpyridin-3-yl)-4-(phenylamino)nicotinamide]
27 | 16 (≈ 48.9 µM) | 32 (≈ 97.7 µM) | CCNC(=O)Nc1cc(Nc2ccccc2)c(C(=O)NCC)cn1 [Compound 8, N-Ethyl-6-(3-ethylureido)-4-(phenylamino)nicotinamide]
28 | ≤ 1 | 2 (≈ 5.27 µM) | CCNC(=O)Nc1cc(Nc2ccccc2)c(C(=O)Nc2cnn(C)c2)cn1 [Compound 65, 6-(3-ethylureido)-N-(1-methyl-1H-pyrazol-4-yl)-4-(phenylamino)nicotinamide]
29 | 8 (≈ 19.7 µM) | 4 (≈ 9.87 µM) | CCNC(=O)Nc1cc(Nc2ccccc2)c(C(=O)Nc2cccc(OC)c2)cn1 [Compound 32, 6-(3-ethylureido)-N-(3-methoxyphenyl)-4-(phenylamino)nicotinamide]
30 | ≤ 1 | 2 (≈ 4.92 µM) | CCNC(=O)Nc1cc(Nc2ccccc2OC)c(C(=O)Nc2cccnc2)cn1 [Compound 109, 6-(3-ethylureido)-4-(2-methoxyphenylamino)-N-(pyridin-3-yl)nicotinamide]
31 | ≤ 1 | 2 (≈ 4.21 µM) | CCNC(=O)Nc1cc(Nc2ccccc2)c(C(=O)Nc2ccc(N3CCC(O)CC3)nc2)cn1 [Compound 100, 6-(3-ethylureido)-N-(6-(4-hydroxypiperidin-1-yl)pyridin-3-yl)-4-(phenylamino)nicotinamide]
32 | 16 (≈ 53.5 µM) | 32 (≈ 107 µM) | CCNC(=O)Nc1cc(Nc2ccccc2)c(C(N)=O)cn1 [Compound 61, 6-(3-Ethylureido)-4-(phenylamino)nicotinamide]
33 | ≤ 1 | ≤ 1 | CCNC(=O)Nc1cc(Nc2ccccc2)c(C(=O)Nc2ccc(CCC(=O)N(C)C)cc2)cn1 [Compound 119, N-(4-(3-(dimethylamino)-3-oxopropyl)phenyl)-6-(3-ethylureido)-4-(phenylamino)nicotinamide]
34 | ≤ 1 | 4 (≈ 10.5 µM) | CCNC(=O)Nc1cc(Nc2ccn(C)n2)c(C(=O)Nc2cccnc2)cn1 [Compound 116, 6-(3-ethylureido)-4-(1-methyl-1H-pyrazol-3-ylamino)-N-(pyridin-3-yl)nicotinamide]
35 | 8 (≈ 20.5 µM) | 32 (≈ 82 µM) | CCNC(=O)Nc1cc(Nc2ccccc2)c(C(=O)NCc2ccccn2)cn1 [Compound 52, 6-(3-ethylureido)-4-(phenylamino)-N-(pyridin-2-ylmethyl)nicotinamide]
36 | 32 (≈ 72.2 µM) | 4 (≈ 9.02 µM) | CCNC(=O)Nc1cc(Nc2ccccc2)c(C(=O)Nc2ccc(C(F)(F)F)cc2)cn1 [Compound 47, 6-(3-ethylureido)-4-(phenylamino)-N-(4-(trifluoromethyl)phenyl)nicotinamide]
37 | 16 (≈ 39.3 µM) | – | CCNC(=O)Nc1cc(Nc2ccc(=O)n(C)c2)c(C(=O)Nc2cccnc2)cn1 [Compound 108, 6-(3-ethylureido)-4-(1-methyl-6-oxo-1,6-dihydropyridin-3-ylamino)-N-(pyridin-3-yl)nicotinamide]
